Experimental data as given in ChEMBL document CHEMBL5696442, “Discovery of type II inhibitors of TGFβ-activated kinase 1 (TAK1) and mitogen-activated protein kinase kinase kinase kinase 2 (MAP4K2)” (J Med Chem, 2015).
The source made the active and inactive calls. No cut-off for these calls is given here.

Columns and labels:
[1] = Inhibition of KHS1 Lys1 labeling site in human Huh-7 cells at 1 uM by KiNativ Profiling analysis relative to control; conditions: condition cancer
[2] = target: Microtubule-associated serine/threonine-protein kinase 1 (Homo sapiens) (UniProt Q9Y2H9); experiment: Inhibition of MAST1 Lys2 labeling site in human A-375 cells at 0.5 uM by KiNativ Profiling analysis relative to control
[3] = target: T1, Serine/threonine-protein kinase D1 (Homo sapiens) (UniProt Q15139); experiment: Inhibition of PRKD1 (unknown origin) at 10 uM by Ambit Kinomescan binding assay
T1 sequence (whole entry): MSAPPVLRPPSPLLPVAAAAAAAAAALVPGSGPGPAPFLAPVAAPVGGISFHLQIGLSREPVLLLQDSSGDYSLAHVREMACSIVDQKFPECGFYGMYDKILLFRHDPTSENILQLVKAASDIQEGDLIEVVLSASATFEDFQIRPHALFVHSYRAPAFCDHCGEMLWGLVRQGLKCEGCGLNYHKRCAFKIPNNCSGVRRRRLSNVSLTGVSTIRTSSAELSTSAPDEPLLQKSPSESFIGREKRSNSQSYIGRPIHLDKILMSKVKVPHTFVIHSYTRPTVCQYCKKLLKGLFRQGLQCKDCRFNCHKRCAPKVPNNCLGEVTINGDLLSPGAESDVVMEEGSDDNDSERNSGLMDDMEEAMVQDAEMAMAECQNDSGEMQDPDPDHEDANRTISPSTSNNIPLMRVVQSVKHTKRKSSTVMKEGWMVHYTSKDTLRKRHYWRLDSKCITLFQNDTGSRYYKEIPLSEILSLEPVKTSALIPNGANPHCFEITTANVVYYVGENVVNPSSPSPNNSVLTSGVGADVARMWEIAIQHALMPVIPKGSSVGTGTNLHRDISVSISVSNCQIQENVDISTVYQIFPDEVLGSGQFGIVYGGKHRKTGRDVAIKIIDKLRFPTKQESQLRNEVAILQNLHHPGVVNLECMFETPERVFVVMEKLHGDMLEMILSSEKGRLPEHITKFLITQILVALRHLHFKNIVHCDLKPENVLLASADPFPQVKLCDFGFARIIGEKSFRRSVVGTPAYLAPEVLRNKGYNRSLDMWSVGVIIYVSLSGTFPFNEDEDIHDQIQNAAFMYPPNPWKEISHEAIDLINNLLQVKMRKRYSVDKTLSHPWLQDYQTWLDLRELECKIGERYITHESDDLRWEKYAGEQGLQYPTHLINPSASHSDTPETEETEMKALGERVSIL

[4] = target: Tyrosine-protein kinase ITK/TSK (Homo sapiens) (UniProt Q08881); experiment: Inhibition of ITK (unknown origin) at 10 uM by Ambit Kinomescan binding assay
[5] = target: Tyrosine-protein kinase Fer (Homo sapiens, UniProt P16591); experiment: Inhibition of FER K1 labeling site in human Huh-7 cells at 1 uM by KiNativ Profiling analysis relative to control; type: cell-based
[6] = target: Serine/threonine-protein kinase PLK1 (Homo sapiens) (UniProt P53350); experiment: Inhibition of PLK1 (unknown origin) at 10 uM by Ambit Kinomescan binding assay
[7] = target: Tyrosine-protein kinase CSK (Homo sapiens, UniProt P41240); experiment: Inhibition of CSK (unknown origin) at 10 uM by Ambit Kinomescan binding assay relative to control
[8] = target: Atypical kinase COQ8B, mitochondrial (Homo sapiens) (UniProt Q96D53); experiment: Inhibition of ADCK4 (unknown origin) at 1 uM by Ambit Kinomescan binding assay relative to control
[9] = target: Tyrosine-protein kinase JAK1 (Homo sapiens) (UniProt P23458); experiment: Inhibition of JAK1 JH1catalytic domain (unknown origin) at 1 uM by Ambit Kinomescan binding assay relative to control
[10] = target: T2, Mixed lineage kinase domain-like protein (Homo sapiens) (UniProt Q8NB16); experiment: Inhibition of MLKL Lys1 labeling site in human A-375 cells at 5 uM by KiNativ Profiling analysis relative to control; type: cell-based
T2 sequence (whole entry): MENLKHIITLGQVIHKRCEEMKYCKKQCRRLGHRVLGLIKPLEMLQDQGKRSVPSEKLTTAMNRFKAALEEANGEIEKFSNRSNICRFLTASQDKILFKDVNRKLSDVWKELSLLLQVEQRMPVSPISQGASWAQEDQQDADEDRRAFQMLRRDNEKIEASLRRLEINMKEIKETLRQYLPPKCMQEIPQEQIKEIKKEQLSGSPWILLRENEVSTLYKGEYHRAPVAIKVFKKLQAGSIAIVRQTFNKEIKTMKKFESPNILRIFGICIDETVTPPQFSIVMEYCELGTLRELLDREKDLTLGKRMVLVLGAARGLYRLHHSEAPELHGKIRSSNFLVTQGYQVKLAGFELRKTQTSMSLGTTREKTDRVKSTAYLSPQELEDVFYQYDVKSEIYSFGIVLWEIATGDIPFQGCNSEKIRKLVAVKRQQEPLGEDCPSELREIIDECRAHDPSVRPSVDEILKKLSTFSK

[11] = target: Calcium/calmodulin-dependent protein kinase type II subunit gamma (Homo sapiens) (UniProt Q13555); experiment: Inhibition of CaMK2g Lys1 labeling site harbouring TSTQEYAAKIINTK in human A-375 cells at 0.05 uM by KiNativ Profiling analysis relative to control; type: cell-based
[12] = target: Cyclin-dependent kinase 7 (Homo sapiens) (UniProt P50613); experiment: Inhibition of CDK7 Lys2 labeling site in human A-375 cells at 0.05 uM by KiNativ Profiling analysis relative to control; type: cell-based
[13] = target: eIF-2-alpha kinase GCN2 (Homo sapiens) (UniProt Q9P2K8); experiment: Inhibition of GCN2 domain2 Lys2 labeling site in human A-375 cells at 0.05 uM by KiNativ Profiling analysis relative to control; type: cell-based

Tyrosine-protein kinase CSK, sequence (P41240 2-450 limits assumed): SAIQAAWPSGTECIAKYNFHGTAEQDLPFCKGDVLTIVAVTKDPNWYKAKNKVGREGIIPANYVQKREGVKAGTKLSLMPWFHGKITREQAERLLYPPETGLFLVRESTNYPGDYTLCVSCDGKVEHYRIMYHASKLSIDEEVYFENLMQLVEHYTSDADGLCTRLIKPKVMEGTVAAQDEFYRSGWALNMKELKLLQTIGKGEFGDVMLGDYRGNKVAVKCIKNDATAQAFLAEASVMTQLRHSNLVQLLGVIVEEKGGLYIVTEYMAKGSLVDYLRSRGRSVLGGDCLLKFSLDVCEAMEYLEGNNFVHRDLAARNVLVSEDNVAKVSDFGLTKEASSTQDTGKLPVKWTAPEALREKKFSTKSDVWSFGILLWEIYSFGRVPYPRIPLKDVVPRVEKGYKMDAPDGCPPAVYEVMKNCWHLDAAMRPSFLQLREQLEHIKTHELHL
Microtubule-associated serine/threonine-protein kinase 1 (Homo sapiens), sequence (Q9Y2H9 whole entry, looked up): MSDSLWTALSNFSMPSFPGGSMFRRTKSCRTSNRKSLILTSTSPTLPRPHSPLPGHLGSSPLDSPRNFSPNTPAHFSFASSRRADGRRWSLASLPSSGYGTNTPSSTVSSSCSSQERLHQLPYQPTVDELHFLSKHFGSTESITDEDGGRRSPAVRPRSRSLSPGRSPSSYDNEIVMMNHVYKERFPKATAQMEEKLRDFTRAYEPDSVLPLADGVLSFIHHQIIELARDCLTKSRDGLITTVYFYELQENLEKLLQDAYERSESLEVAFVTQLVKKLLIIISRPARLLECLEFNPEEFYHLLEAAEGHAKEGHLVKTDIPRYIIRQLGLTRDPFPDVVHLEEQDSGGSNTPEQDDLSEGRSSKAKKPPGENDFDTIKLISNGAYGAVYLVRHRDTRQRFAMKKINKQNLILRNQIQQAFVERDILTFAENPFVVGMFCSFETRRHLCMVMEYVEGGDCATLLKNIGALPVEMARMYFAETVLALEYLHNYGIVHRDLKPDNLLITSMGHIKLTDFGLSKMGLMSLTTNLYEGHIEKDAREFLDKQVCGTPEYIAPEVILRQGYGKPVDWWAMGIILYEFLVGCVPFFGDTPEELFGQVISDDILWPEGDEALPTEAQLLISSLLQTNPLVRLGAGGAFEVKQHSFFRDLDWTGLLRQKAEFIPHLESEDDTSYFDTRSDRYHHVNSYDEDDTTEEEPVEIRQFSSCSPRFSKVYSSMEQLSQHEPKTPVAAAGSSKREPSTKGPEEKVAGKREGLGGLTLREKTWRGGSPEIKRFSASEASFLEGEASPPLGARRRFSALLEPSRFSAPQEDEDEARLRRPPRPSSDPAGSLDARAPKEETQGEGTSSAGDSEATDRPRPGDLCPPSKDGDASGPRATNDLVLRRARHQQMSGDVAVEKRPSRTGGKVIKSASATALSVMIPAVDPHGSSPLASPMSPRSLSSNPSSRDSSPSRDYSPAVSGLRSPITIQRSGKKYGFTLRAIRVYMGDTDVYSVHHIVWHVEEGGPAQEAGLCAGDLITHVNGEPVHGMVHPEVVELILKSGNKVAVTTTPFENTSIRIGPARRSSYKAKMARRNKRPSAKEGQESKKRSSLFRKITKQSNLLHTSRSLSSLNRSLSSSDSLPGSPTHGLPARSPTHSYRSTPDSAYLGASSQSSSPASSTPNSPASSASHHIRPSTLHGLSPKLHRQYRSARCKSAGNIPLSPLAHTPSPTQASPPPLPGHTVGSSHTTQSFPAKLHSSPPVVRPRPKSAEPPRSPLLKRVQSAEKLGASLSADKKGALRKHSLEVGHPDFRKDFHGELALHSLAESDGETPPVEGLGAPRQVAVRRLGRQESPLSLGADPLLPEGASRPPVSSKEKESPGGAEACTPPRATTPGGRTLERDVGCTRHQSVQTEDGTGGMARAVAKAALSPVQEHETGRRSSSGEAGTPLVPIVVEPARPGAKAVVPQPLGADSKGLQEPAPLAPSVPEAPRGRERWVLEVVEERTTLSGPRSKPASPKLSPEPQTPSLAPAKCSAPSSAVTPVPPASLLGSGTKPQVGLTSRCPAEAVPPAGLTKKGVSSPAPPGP
Tyrosine-protein kinase JAK1 (Homo sapiens), sequence (P23458 whole entry, the tested form may be a part): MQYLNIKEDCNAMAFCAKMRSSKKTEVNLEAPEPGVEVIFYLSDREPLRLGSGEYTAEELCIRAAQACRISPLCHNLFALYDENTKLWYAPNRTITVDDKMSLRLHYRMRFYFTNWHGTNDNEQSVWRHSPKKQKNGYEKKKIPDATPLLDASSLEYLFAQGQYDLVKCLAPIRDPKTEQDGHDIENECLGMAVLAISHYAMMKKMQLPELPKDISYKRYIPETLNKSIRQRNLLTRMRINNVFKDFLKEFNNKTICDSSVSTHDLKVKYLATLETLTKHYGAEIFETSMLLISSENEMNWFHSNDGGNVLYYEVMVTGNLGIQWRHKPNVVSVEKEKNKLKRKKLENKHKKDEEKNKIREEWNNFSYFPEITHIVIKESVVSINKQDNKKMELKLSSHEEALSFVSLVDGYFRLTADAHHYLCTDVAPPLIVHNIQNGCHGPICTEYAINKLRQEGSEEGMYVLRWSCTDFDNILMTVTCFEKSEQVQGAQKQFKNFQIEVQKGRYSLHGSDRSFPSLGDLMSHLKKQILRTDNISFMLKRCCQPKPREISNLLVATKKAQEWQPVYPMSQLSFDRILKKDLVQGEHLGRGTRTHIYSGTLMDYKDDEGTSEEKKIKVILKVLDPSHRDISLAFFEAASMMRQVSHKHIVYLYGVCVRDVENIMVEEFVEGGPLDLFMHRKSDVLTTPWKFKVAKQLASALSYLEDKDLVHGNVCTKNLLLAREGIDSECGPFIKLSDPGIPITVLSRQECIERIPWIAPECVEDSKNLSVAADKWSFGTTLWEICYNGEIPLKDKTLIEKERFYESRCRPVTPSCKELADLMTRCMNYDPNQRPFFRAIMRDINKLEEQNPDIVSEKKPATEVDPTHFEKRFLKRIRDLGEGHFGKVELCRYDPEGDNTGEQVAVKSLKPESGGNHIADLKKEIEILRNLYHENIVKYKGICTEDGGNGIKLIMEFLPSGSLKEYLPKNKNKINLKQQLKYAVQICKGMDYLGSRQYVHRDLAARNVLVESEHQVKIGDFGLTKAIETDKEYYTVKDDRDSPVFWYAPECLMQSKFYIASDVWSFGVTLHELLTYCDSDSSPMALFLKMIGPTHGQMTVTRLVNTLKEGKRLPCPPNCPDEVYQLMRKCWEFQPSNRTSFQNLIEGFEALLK
Tyrosine-protein kinase Fer, sequence (P16591 whole entry, looked up): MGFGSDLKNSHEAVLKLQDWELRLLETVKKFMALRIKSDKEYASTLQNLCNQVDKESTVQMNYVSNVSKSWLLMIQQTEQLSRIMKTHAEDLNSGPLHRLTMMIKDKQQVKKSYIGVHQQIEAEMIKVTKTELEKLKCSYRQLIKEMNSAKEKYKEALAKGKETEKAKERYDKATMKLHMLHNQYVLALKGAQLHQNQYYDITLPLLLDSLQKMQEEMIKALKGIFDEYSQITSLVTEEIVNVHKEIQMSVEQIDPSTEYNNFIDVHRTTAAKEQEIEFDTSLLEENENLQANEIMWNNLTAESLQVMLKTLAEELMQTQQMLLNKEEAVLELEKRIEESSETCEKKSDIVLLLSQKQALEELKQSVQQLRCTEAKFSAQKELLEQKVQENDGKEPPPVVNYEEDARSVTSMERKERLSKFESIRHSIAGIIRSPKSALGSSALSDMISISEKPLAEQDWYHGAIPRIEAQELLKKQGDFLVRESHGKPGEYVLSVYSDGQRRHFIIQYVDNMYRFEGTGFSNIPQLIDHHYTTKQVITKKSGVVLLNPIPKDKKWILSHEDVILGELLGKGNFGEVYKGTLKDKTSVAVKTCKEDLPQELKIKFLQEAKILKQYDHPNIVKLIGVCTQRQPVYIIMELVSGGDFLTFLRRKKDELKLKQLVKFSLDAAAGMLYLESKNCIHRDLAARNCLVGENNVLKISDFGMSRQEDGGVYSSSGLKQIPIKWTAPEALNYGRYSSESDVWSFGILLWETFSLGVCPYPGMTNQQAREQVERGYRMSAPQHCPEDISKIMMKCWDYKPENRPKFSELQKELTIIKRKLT
Calcium/calmodulin-dependent protein kinase type II subunit gamma (Homo sapiens), sequence (Q13555 whole entry): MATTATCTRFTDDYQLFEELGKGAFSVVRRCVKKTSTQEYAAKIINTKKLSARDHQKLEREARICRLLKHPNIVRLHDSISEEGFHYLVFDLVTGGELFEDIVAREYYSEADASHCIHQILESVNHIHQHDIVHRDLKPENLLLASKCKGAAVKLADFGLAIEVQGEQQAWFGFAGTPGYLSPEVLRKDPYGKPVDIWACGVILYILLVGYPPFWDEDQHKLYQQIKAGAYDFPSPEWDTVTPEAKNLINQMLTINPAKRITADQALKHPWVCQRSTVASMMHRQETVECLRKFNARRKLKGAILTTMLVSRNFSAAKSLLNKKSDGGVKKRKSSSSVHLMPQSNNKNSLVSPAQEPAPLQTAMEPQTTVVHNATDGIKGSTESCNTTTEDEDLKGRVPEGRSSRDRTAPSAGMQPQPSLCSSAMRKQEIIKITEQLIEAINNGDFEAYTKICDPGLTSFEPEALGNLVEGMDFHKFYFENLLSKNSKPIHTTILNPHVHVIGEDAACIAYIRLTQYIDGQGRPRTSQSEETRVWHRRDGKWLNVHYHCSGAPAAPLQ
Cyclin-dependent kinase 7 (Homo sapiens), sequence (P50613 whole entry, the tested form may be a part): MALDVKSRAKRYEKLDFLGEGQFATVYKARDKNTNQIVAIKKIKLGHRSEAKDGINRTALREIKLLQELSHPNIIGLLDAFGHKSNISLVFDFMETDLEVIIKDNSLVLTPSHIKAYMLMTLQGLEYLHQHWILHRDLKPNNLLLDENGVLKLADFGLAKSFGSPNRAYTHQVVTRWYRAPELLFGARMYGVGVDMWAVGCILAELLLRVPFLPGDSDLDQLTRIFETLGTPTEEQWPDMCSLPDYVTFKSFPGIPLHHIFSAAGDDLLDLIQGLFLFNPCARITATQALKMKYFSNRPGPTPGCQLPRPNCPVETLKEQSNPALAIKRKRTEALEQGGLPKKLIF

SMILES: CNc1cc(Oc2cc(C(=O)Nc3cc(N4CCN(C)CC4)cc(C(F)(F)F)c3)ccc2C)ncn1
- inhibition at 1 µM [1]: -10.3%

SMILES: CCN1CCN(Cc2ccc(NC(=O)c3ccc(C)c(Oc4ccnc5[nH]ccc45)c3)cc2C(F)(F)F)CC1
- inhibition [2]: 16.1%
- inhibition [3]: inactive
- inhibition [4]: inactive
- inhibition [5]: 52.4%
- inhibition [6]: inactive
- inhibition [7]: 0.45%

SMILES: CCN1CCN(Cc2ccc(NC(=O)c3ccc(C)c(/C=C/c4cnc5[nH]ccc5c4OC)c3)cc2C(F)(F)F)CC1
- inhibition [8]: 81%
- inhibition [9]: 76%
- inhibition [10]: 3.2%
- inhibition [11]: 26.3%
- inhibition [12]: 32.7%
- inhibition [13]: -0.9%
